# Measured values from patent US5672715A, “Herbicidal substituted 3-aryl-pyrazoles” (Monsanto Company, priority 1995, dated 1997).
# How the values were obtained:
# Type in all cases: in vivo
# Soybean [1] = test: post-emergence herbicide test; conditions: 0.25 lb/A; for inhibition at 280.212 g/ha: Glycine max, post-emergence, read-out: % plant inhibition
# In short: (§1)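 Soil pans seeded, covered and leveled; grown in greenhouse 2–3 weeks. Sprayed individually (atomizer, 10 psig, 200 gallons/acre). Percent inhibition recorded.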
# Downy Brome [2] = test: post-emergence herbicide test; conditions: 0.25 lb/A; for inhibition at 280.212 g/ha: Bromus tectorum, post-emergence, read-out: % plant inhibition
# In short: as §1
# Common Chickweed [3] = test: post-emergence herbicide test; conditions: 0.25 lb/A; for inhibition at 280.212 g/ha: post-emergence, read-out: % plant inhibition
# In short: as §1
# Seedling Johnsongrass [4] = test: post-emergence herbicide test; conditions: 0.25 lb/A; for inhibition at 280.212 g/ha: Sorghum halepense, post-emergence, read-out: % plant inhibition
# In short: as §1
# Morning Glory [5] = test: post-emergence herbicide test; conditions: 0.25 lb/A; for inhibition at 280.212 g/ha: Ipomoea, post-emergence, read-out: % plant inhibition
# In short: as §1
# Blackgrass [6] = test: post-emergence herbicide test; conditions: 0.25 lb/A; for inhibition at 280.212 g/ha: Alopecurus myosuroides, post-emergence, read-out: % plant inhibition
# In short: as §1
# Birdseye Speedwell [7] = test: post-emergence herbicide test; conditions: 0.25 lb/A; for inhibition at 280.212 g/ha: post-emergence, read-out: % plant inhibition
# In short: as §1
# Wheat [8] = test: post-emergence herbicide test; conditions: 0.25 lb/A; for inhibition at 280.212 g/ha: Triticum aestivum, post-emergence, read-out: % plant inhibition
# In short: as §1
# Green Foxtail [9] = test: post-emergence herbicide test; conditions: 0.25 lb/A; for inhibition at 280.212 g/ha: Setaria viridis, post-emergence, read-out: % plant inhibition
# In short: as §1
# Barnyardgrass [10] = test: post-emergence herbicide test; conditions: 0.25 lb/A; for inhibition at 280.212 g/ha: Echinochloa crus-galli, post-emergence, read-out: % plant inhibition
# In short: as §1
# Bedstraw Catchweed [11] = test: post-emergence herbicide test; conditions: 0.25 lb/A; for inhibition at 280.212 g/ha: Galium aparine, post-emergence, read-out: % plant inhibition
# In short: as §1
# Corn [12] = test: post-emergence herbicide test; conditions: 0.25 lb/A; for inhibition at 280.212 g/ha: Zea mays, post-emergence, read-out: % plant inhibition
# In short: as §1
# Wild Oats [13] = test: post-emergence herbicide test; conditions: 0.25 lb/A; for inhibition at 280.212 g/ha: Avena fatua, post-emergence, read-out: % plant inhibition
# In short: as §1
# Giant Foxtail [14] = test: post-emergence herbicide test; conditions: 0.25 lb/A; for inhibition at 280.212 g/ha: Setaria faberi, post-emergence, read-out: % plant inhibition
# In short: as §1
# Cocklebur [15] = test: post-emergence herbicide test; conditions: 0.25 lb/A; for inhibition at 280.212 g/ha: Xanthium strumarium, post-emergence, read-out: % plant inhibition
# In short: as §1
# Rape [16] = test: post-emergence herbicide test; conditions: 0.25 lb/A; for inhibition at 280.212 g/ha: post-emergence, read-out: % plant inhibition
# In short: as §1
# Velvetleaf [17] = test: post-emergence herbicide test; conditions: 0.25 lb/A; for inhibition at 280.212 g/ha: Abutilon theophrasti, post-emergence, read-out: % plant inhibition
# In short: as §1
# Soybean [18] = test: pre-emergence herbicide test; conditions: 0.25 lb/A; for inhibition at 280.212 g/ha: Glycine max, pre-emergence, read-out: % plant inhibition
# In short: (§2)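 Percent inhibition of emergence and growth was recorded roughly 14 days after seeding. Compound was incorporated into, or applied onto, a topsoil cover layer over seeds in pans kept in a greenhouse and watered from below.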
# Downy Brome [19] = test: pre-emergence herbicide test; conditions: 0.25 lb/A; for inhibition at 280.212 g/ha: Bromus tectorum, pre-emergence, read-out: % plant inhibition
# In short: as §2
# Common Chickweed [20] = test: pre-emergence herbicide test; conditions: 0.25 lb/A; for inhibition at 280.212 g/ha: pre-emergence, read-out: % plant inhibition
# In short: as §2
# Seedling Johnsongrass [21] = test: pre-emergence herbicide test; conditions: 0.25 lb/A; for inhibition at 280.212 g/ha: Sorghum halepense, pre-emergence, read-out: % plant inhibition
# In short: as §2
# Morning Glory [22] = test: pre-emergence herbicide test; conditions: 0.25 lb/A; for inhibition at 280.212 g/ha: Ipomoea, pre-emergence, read-out: % plant inhibition
# In short: as §2
# Blackgrass [23] = test: pre-emergence herbicide test; conditions: 0.25 lb/A; for inhibition at 280.212 g/ha: Alopecurus myosuroides, pre-emergence, read-out: % plant inhibition
# In short: as §2
# Birdseye Speedwell [24] = test: pre-emergence herbicide test; conditions: 0.25 lb/A; for inhibition at 280.212 g/ha: pre-emergence, read-out: % plant inhibition
# In short: as §2
# Wheat [25] = test: pre-emergence herbicide test; conditions: 0.25 lb/A; for inhibition at 280.212 g/ha: Triticum aestivum, pre-emergence, read-out: % plant inhibition
# In short: as §2
# Green Foxtail [26] = test: pre-emergence herbicide test; conditions: 0.25 lb/A; for inhibition at 280.212 g/ha: Setaria viridis, pre-emergence, read-out: % plant inhibition
# In short: as §2
# Barnyardgrass [27] = test: pre-emergence herbicide test; conditions: 0.25 lb/A; for inhibition at 280.212 g/ha: Echinochloa crus-galli, pre-emergence, read-out: % plant inhibition
# In short: as §2
# Bedstraw Catchweed [28] = test: pre-emergence herbicide test; conditions: 0.25 lb/A; for inhibition at 280.212 g/ha: Galium aparine, pre-emergence, read-out: % plant inhibition
# In short: as §2
# Corn [29] = test: pre-emergence herbicide test; conditions: 0.25 lb/A; for inhibition at 280.212 g/ha: Zea mays, pre-emergence, read-out: % plant inhibition
# In short: as §2
# Wild Oats [30] = test: pre-emergence herbicide test; conditions: 0.25 lb/A; for inhibition at 280.212 g/ha: Avena fatua, pre-emergence, read-out: % plant inhibition
# In short: as §2
# Giant Foxtail [31] = test: pre-emergence herbicide test; conditions: 0.25 lb/A; for inhibition at 280.212 g/ha: Setaria faberi, pre-emergence, read-out: % plant inhibition
# In short: as §2
# Cocklebur [32] = test: pre-emergence herbicide test; conditions: 0.25 lb/A; for inhibition at 280.212 g/ha: Xanthium strumarium, pre-emergence, read-out: % plant inhibition
# In short: as §2
# Rape [33] = test: pre-emergence herbicide test; conditions: 0.25 lb/A; for inhibition at 280.212 g/ha: pre-emergence, read-out: % plant inhibition
# In short: as §2
# Velvetleaf [34] = test: pre-emergence herbicide test; conditions: 0.25 lb/A; for inhibition at 280.212 g/ha: Abutilon theophrasti, pre-emergence, read-out: % plant inhibition
# In short: as §2
structure (smiles),measurement,setting,value
Cc1c(-c2cc(C(=O)OCC(=O)c3ccccc3)c(Cl)cc2F)nn(C)c1C(F)(F)F [Compound 43],inhibition at 280.212 g/ha,Soybean [1],15%
same,inhibition at 280.212 g/ha,Downy Brome [2],10%
same,inhibition at 280.212 g/ha,Common Chickweed [3],65%
same,inhibition at 280.212 g/ha,Seedling Johnsongrass [4],25%
same,inhibition at 280.212 g/ha,Morning Glory [5],75%
same,inhibition at 280.212 g/ha,Blackgrass [6],10%
same,inhibition at 280.212 g/ha,Birdseye Speedwell [7],100%
same,inhibition at 280.212 g/ha,Wheat [8],10%
same,inhibition at 280.212 g/ha,Green Foxtail [9],20%
same,inhibition at 280.212 g/ha,Barnyardgrass [10],5%
same,inhibition at 280.212 g/ha,Bedstraw Catchweed [11],30%
same,inhibition at 280.212 g/ha,Corn [12],7%
same,inhibition at 280.212 g/ha,Wild Oats [13],15%
same,inhibition at 280.212 g/ha,Giant Foxtail [14],0%
same,inhibition at 280.212 g/ha,Cocklebur [15],85%
same,inhibition at 280.212 g/ha,Rape [16],25%
same,inhibition at 280.212 g/ha,Velvetleaf [17],80%
same,inhibition at 280.212 g/ha,Soybean [18],0%
same,inhibition at 280.212 g/ha,Downy Brome [19],5%
same,inhibition at 280.212 g/ha,Common Chickweed [20],55%
same,inhibition at 280.212 g/ha,Seedling Johnsongrass [21],35%
same,inhibition at 280.212 g/ha,Morning Glory [22],10%
same,inhibition at 280.212 g/ha,Blackgrass [23],10%
same,inhibition at 280.212 g/ha,Birdseye Speedwell [24],60%
same,inhibition at 280.212 g/ha,Wheat [25],0%
same,inhibition at 280.212 g/ha,Green Foxtail [26],60%
same,inhibition at 280.212 g/ha,Barnyardgrass [27],15%
same,inhibition at 280.212 g/ha,Bedstraw Catchweed [28],20%
same,inhibition at 280.212 g/ha,Corn [29],0%
same,inhibition at 280.212 g/ha,Wild Oats [30],5%
same,inhibition at 280.212 g/ha,Giant Foxtail [31],15%
same,inhibition at 280.212 g/ha,Cocklebur [32],45%
same,inhibition at 280.212 g/ha,Rape [33],5%
same,inhibition at 280.212 g/ha,Velvetleaf [34],65%
"CC(C)OC(=O)c1cc(-c2nn(C)c(C(F)(F)F)c2CF)c(F)cc1Cl [Compound 15, 2-Chloro-4-fluoro-5-[4-(fluoromethyl)-1-methyl-5-(trifluoromethyl)-1H-pyrazol-3-yl]benzoic acid, 1-methylethyl ester]",inhibition at 280.212 g/ha,Soybean [1],90%
same,inhibition at 280.212 g/ha,Downy Brome [2],100%
same,inhibition at 280.212 g/ha,Common Chickweed [3],100%
same,inhibition at 280.212 g/ha,Seedling Johnsongrass [4],100%
same,inhibition at 280.212 g/ha,Morning Glory [5],98%
same,inhibition at 280.212 g/ha,Blackgrass [6],100%
same,inhibition at 280.212 g/ha,Birdseye Speedwell [7],100%
same,inhibition at 280.212 g/ha,Wheat [8],20%
same,inhibition at 280.212 g/ha,Green Foxtail [9],100%
same,inhibition at 280.212 g/ha,Barnyardgrass [10],99%
same,inhibition at 280.212 g/ha,Bedstraw Catchweed [11],100%
same,inhibition at 280.212 g/ha,Corn [12],65%
same,inhibition at 280.212 g/ha,Wild Oats [13],100%
same,inhibition at 280.212 g/ha,Giant Foxtail [14],90%
same,inhibition at 280.212 g/ha,Cocklebur [15],99%
same,inhibition at 280.212 g/ha,Rape [16],100%
same,inhibition at 280.212 g/ha,Velvetleaf [17],100%
same,inhibition at 280.212 g/ha,Soybean [18],20%
same,inhibition at 280.212 g/ha,Downy Brome [19],100%
same,inhibition at 280.212 g/ha,Common Chickweed [20],100%
same,inhibition at 280.212 g/ha,Seedling Johnsongrass [21],100%
same,inhibition at 280.212 g/ha,Morning Glory [22],93%
same,inhibition at 280.212 g/ha,Blackgrass [23],100%
same,inhibition at 280.212 g/ha,Birdseye Speedwell [24],100%
same,inhibition at 280.212 g/ha,Wheat [25],0%
same,inhibition at 280.212 g/ha,Green Foxtail [26],100%
same,inhibition at 280.212 g/ha,Barnyardgrass [27],100%
same,inhibition at 280.212 g/ha,Bedstraw Catchweed [28],98%
same,inhibition at 280.212 g/ha,Corn [29],93%
same,inhibition at 280.212 g/ha,Wild Oats [30],90%
same,inhibition at 280.212 g/ha,Giant Foxtail [31],100%
same,inhibition at 280.212 g/ha,Cocklebur [32],90%
same,inhibition at 280.212 g/ha,Rape [33],60%
same,inhibition at 280.212 g/ha,Velvetleaf [34],97%
Cc1c(-c2cc(C(=O)OCCC(C)C)c(Cl)cc2F)nn(C)c1C(F)(F)F [Compound 55],% plant inhibition,Soybean [1],20%
same,% plant inhibition,Downy Brome [2],20%
same,% plant inhibition,Common Chickweed [3],70%
same,% plant inhibition,Seedling Johnsongrass [4],70%
same,% plant inhibition,Morning Glory [5],85%
same,% plant inhibition,Blackgrass [6],20%
same,% plant inhibition,Birdseye Speedwell [7],95%
same,% plant inhibition,Wheat [8],10%
same,% plant inhibition,Green Foxtail [9],65%
same,% plant inhibition,Barnyardgrass [10],45%
same,% plant inhibition,Bedstraw Catchweed [11],75%
same,% plant inhibition,Corn [12],20%
same,% plant inhibition,Wild Oats [13],30%
same,% plant inhibition,Giant Foxtail [14],35%
same,% plant inhibition,Cocklebur [15],90%
same,% plant inhibition,Rape [16],15%
same,% plant inhibition,Velvetleaf [17],99%
same,% plant inhibition,Soybean [18],0%
same,% plant inhibition,Downy Brome [19],55%
same,% plant inhibition,Common Chickweed [20],75%
same,% plant inhibition,Seedling Johnsongrass [21],95%
same,% plant inhibition,Morning Glory [22],10%
same,% plant inhibition,Blackgrass [23],60%
same,% plant inhibition,Birdseye Speedwell [24],100%
same,% plant inhibition,Wheat [25],0%
same,% plant inhibition,Green Foxtail [26],100%
same,% plant inhibition,Barnyardgrass [27],30%
same,% plant inhibition,Bedstraw Catchweed [28],85%
same,% plant inhibition,Corn [29],0%
same,% plant inhibition,Wild Oats [30],35%
same,% plant inhibition,Giant Foxtail [31],100%
same,% plant inhibition,Cocklebur [32],30%
same,% plant inhibition,Rape [33],5%
same,% plant inhibition,Velvetleaf [34],85%
